In patent US11628186B2, “Method and composition for the reduction of viral replication, duration and spread of the COVID-19 and the flu” (priority 2017, dated 2023):
Values joined by “and” are separate entries in the source; they are usually repeats but may differ in a detail not shown here. Equal values may be shown once.

Test system: patients with chronic Hypoxemia
Assay: Various drugs with or without pre-inhaled pyruvate formulas (Table VII)
Assay type: in vivo, human
Parameters: SaO2 Measurements taken after medication and compared to baseline / SaO2 Measurements taken after taking the medication and compared to baseline: unit not given here
Experimental: With the hundreds of patients tested in our various clinical trials, data was gathered as to the type of medications the patients used and the frequency of their use over a six-month period. The patients were asked to rate their medications form 1-10 with 1 being the most irritating with the most side effects and 10 being the best with no irritation and no side effects. In these clinical trials, various drugs were evaluated for irritation, mucus production, and efficacy in humans. The drugs were all evaluated using their current formulations and concentrations against the same formulations with the addition of sodium pyruvate, with the calcium, phosphate and magnesium formula given just prior to the use of their medications. They were instructed to 20 inhale this formula just prior to the use of their medications and to evaluate the effect of their medications on the 1-10 scale.
Patients on the various inhaled medications whether inhaled or taken orally or by IV infusion, were enlisted in the evaluation of the inhaled sodium pyruvate calcium, phosphate and magnesium formula. The patients were tested for their SaO2 levels and those that had SaO2 levels below 92% were asked to enlist in the study. […] After the SaO2 levels were determined prior to and one hour after taking their medications, the patients returned the following day, SaO2 measurements were taken one hour prior to taking their medications. The patients were then handed the hypotonic inhalation formula of sodium pyruvate with calcium, phosphate magnesium formula and instructed to inhale it one hour before taking their medications, SaO2 measurements were then taken one hour after taking their medications.

[1] = Drug in commercial formula taken in prescribed way
[2] = Drug in commercial formula with Pre-inhaled sodium pyruvate, calcium & phosphate & magnesium
[3] = Drug in commercial formula with pre-inhaled sodium pyruvate saline only
[4] = Drugs commercial formula given as instructed in the package
[5] = Drugs in commercial formula Pre-inhaled sodium pyruvate & calcium & phosphate & magnesium
[6] = Drugs in commercial formula with pre-inhaled sodium pyruvate in saline only

Row | Structure (SMILES) | SaO2 Measurements taken after medication and compared to baseline [1] | SaO2 measurements taken after taking medication and compared to baseline [2] | SaO2 Measurements taken after taking the medication and compared to baseline [3] | Lung functions (rating 1-10) [4] | Lung functions (rating 1-10) [5] | Lung functions (rating 1-10) [6] | Lung functions (rating 1-10) (in vivo) | SaO2 Measurements taken after medication and compared to baseline (in vivo) | SaO2 Measurements taken after taking the medication and compared to baseline (in vivo) | SaO2 measurements taken after taking medication and compared to baseline (in vivo)
1 | CC(C)(C)NCC(O)c1ccc(O)c(CO)c1 (stereo not shown) [Albuterol] | 0 | +4 | +1 | 8 | 8 | 8 |  |  |  | 
2 | C[C@H]1[C@H](NC(=O)/C(=N\OC(C)(C)C(=O)O)c2csc(N)n2)C(=O)N1S(=O)(=O)O [Aztreonam] | −1 | +4 | 0 | 8 | 7 | 8 |  |  |  | 
3 | Oc1ccc2c(c1)[C@@]13CCCC[C@@]1(O)[C@@H](C2)N(CC1CCC1)CC3 [Butorphanol] | −2 | 0 | 0 | 6 | 9 | 7 |  |  |  | 
4 | Clc1ccccc1C(c1ccccc1)(c1ccccc1)n1ccnc1 [Chlotrimizole] | −2 | +1 | +1 | 4 | 8 | 6 |  |  |  | 
5 | O=C(O)c1cc(=O)c2c(OCC(O)COc3cccc4oc(C(=O)O)cc(=O)c34)cccc2o1 [Cromoglycate] | 0 | +5 | 0 | 3 | 7 | 6 |  |  |  | 
6 | CNC[C@H](O)c1ccc(O)c(O)c1 [Epinephrine] |  |  |  |  |  |  | 3 and 4 and 5 | +1 | 0 | +6
7 | CC1(C)O[C@@H]2C[C@H]3[C@@H]4C[C@H](F)C5=CC(=O)C=C[C@]5(C)[C@H]4[C@@H](O)C[C@]3(C)[C@]2(C(=O)CO)O1 [Flunisolide] | −1 | +4 | +1 | 6 | 6 | 6 |  |  |  | 
8 | C/C(=C\C(=O)OCCCCCCCCC(=O)O)C[C@@H]1OC[C@H](C[C@@H]2O[C@H]2[C@@H](C)[C@H](C)O)[C@@H](O)[C@H]1O [Mupirocin] | 0 | +4 | 0 | 4 | 8 | 6 |  |  |  | 
9 | N=C(N)c1ccc(OCCCCCOc2ccc(C(=N)N)cc2)cc1 [Pentamidine isethionate] | −1 | +2 | +1 | 4 | 8 | 5 |  |  |  | 
10 | NC(=O)c1ncn([C@@H]2O[C@H](CO)[C@@H](O)[C@H]2O)n1 [Ribavirin] | −3 | +2 | 0 | 5 | 7 | 6 |  |  |  | 
11 | NC[C@H]1O[C@H](O[C@H]2[C@H](O)[C@@H](O[C@H]3O[C@H](CO)[C@@H](O)[C@H](N)[C@H]3O)[C@H](N)C[C@@H]2N)[C@H](N)C[C@@H]1O [Tobramycin] | −2 | +3 | 0 | 5 | 6 | 5 |  |  |  | 
